Measurements: patent publication US20110021471A1, “REDUCING Abeta42 LEVELS AND Abeta AGGREGATION” (priority 2007, published 2011)

Experiments:
APP wild-type cells = assay: Aβ modulation in APP wild-type cells; format: cell-based; details: APP wild-type cells; read-out: EC50, lowering of Aβ42
Description: (§1) (A) and (B) The sequences of wildtype (WT; A) APP and the mutated substrate (B) containing the homologous region (italic, underlined) of the NOTCH transmembrane domain (TMD) in APP where GSMs are hypothesized to bind. […] Bottom row, FT-1 ([…]) raised Aβ42 200% in APP wild-type cells (A); however, in APP-NOTCH TMD cells (B), FT-1 caused minimal changes in the Aβ42 (95%) or Aβ40 (90%) signal. Data are presented as amyloid-β percentage of control±s.e.m., n=3.
FIG. 19. Substitution of human Notch sequence in the APP transmembrane domain (TMD) changes sensitivity to modulation. (A) Site-directed mutagenesis was used to exchange the analogous region of the human Notch TMD (bold and underlined) for a section (bold and underlined) of wild-type APP (APPwt) we have shown to be labeled by GSMs. The new substrate (APP-Notch TMD) is cleaved by γ-secretase primarily after valine and alanine residues corresponding to 40 and 42 in APPwt (arrows). […] The beginning (1) N-terminal amino acid (AA) to the ending C-terminal AA is shown above each peak, with the molecular weight (m/z) below. 1-40 and 1-42 are detected as the two major species in APP-Notch TMD conditioned media. It should be noted that the mutagenesis strategy to create APPNotch TMD led to a single AA deletion relative to APPwt. […] Both cell lines were treated (6 hours) with L-685,458 (10 μM), which is hypothesized to target the active site aspartate residues, media was collected, and analyzed for changes in Aβ levels. […]
To test the hypothesis that mutation of the GSM binding site in APP should alter sensitivity to GSMs, a portion of the GSM binding site in APP was exchanged with the analogous region of human NOTCH (FIGS. 18A and 18B; FIG. 19). […] Although the molecular weight and abundance of each chimeric peptide differed from amyloid-β peptides from APP, the main species produced from the APP-NOTCH TMD construct had identical C-termini to Ab1-40 and Ab1-42, and could be quantified by enzyme-linked immunosorbent assays (ELISAs; FIG. 19). […]

γ-secretase = γ-secretase (Homo sapiens, UniProt P49768); assay: GSM activity of compounds that bind Aβ or Aβ amyloid (cell-based or cell-free γ-secretase assays, FIG. 12); details: two doses (10 and 100 μM)
Description: A literature search was performed to identify compounds reported to bind to the Aβ peptide directly or amyloid. These candidates were initially tested in cell-based assays or cell-free in vitro γ-secretase assays at two doses (10 and 100 μM).
(§2) Finally, X-34 was tested for its ability to modulate Aβ42 amounts in an APP transgenic mouse (Tg2576).

APP-NOTCH TMD cells = assay: Aβ modulation in APP-NOTCH TMD cells; format: cell-based, human; details: APP-NOTCH TMD line
Description: as §1
FIG. 19. Substitution of human Notch sequence in the APP transmembrane domain (TMD) changes sensitivity to modulation. (A) Site-directed mutagenesis was used to exchange the analogous region of the human Notch TMD (bold and underlined) for a section (bold and underlined) of wild-type APP (APPwt) we have shown to be labeled by GSMs. The new substrate (APP-Notch TMD) is cleaved by γ-secretase primarily after valine and alanine residues corresponding to 40 and 42 in APPwt (arrows). […] The beginning (1) N-terminal amino acid (AA) to the ending C-terminal AA is shown above each peak, with the molecular weight (m/z) below. 1-40 and 1-42 are detected as the two major species in APP-Notch TMD conditioned media. It should be noted that the mutagenesis strategy to create APPNotch TMD led to a single AA deletion relative to APPwt. The correct change in molecular weight caused by the introduced mutations were confirmed by the mass spectrum. For simplicity the peptides are referenced by their C-terminal residues relative to Aβ (40, 42, etc). Representative mass spectra are shown from multiple IP reactions (3) and duplicate spots. […] Both cell lines were treated (6 hours) with L-685,458 (10 μM), which is hypothesized to target the active site aspartate residues, media was collected, and analyzed for changes in Aβ levels. The 40 and 42 Aβ reactive species from both cell lines were inhibited by L-685,458 with equal sensitivity (no significant difference; 40 p>0.5; 42 p>0.4; t test; n=3).
To test the hypothesis that mutation of the GSM binding site in APP should alter sensitivity to GSMs, a portion of the GSM binding site in APP was exchanged with the analogous region of human NOTCH (FIGS. 18A and 18B; FIG. 19). The chimeric construct was used because the NOTCH transmembrane domain (TMD) appears resistant to GSM effects. The APP NOTCH TMD construct produced a spectrum of chimeric amyloid-β species in conditioned cell media (FIG. 19). Although the molecular weight and abundance of each chimeric peptide differed from amyloid-β peptides from APP, the main species produced from the APP-NOTCH TMD construct had identical C-termini to Ab1-40 and Ab1-42, and could be quantified by enzyme-linked immunosorbent assays (ELISAs; FIG. 19). The relative sensitivity to GSMs of APP-NOTCH TMD versus APP was assayed in stably transfected cells. […]

Aβ(1-42) = Aβ(1-42) (Homo sapiens, UniProt P05067); assay: Fluorescence titration and saturation binding of Aβ(1-42) with X-34
Description: Fluorescence titration and saturation binding of Aβ(1-42) with X-34. Incremental increases in fluorescence (ΔF) when Aβ(1-42) was included at the indicated total concentrations of X-34 were fitted to eq. 1.
as §2

H4 APPwt cells = assay: Immunoprecipitation-mass spectrometry of media from H4 APPwt cells; format: cell-based, human
Description: FIG. 14. Amyloid binding compounds alter the cleavage of Aβ similar to other established γ-secretase modulators Immunoprecipitation-mass spectrometry studies were conducted on media from H4 APPwt cells grown in the presence of test compounds for 16 hours. Conditions were: control (DMSO, 0.5%), sulindac sulfide (SS; 25 μM), chrysamine g (CG; 25 μM), and X-34 (25 μM). SS was included as a control GSM known to reduce Aβ42 and increase Aβ38. Spectra shown are representative of two experiments with 2-3 replicates each. Identified Aβ peptides based on calculated mass (m/z) are indicated above the peaks.

Aβ(1-42), sequence (P05067 672-713 limits assumed): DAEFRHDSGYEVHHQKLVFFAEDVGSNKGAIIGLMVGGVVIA

SMILES: O=C(O)c1cc(C=Cc2ccc(C=Cc3ccc(O)c(C(=O)O)c3)cc2)ccc1O [X-34, 1,4-bis(3-carboxy-4-hydroxyphenylethenyl)-benzene]
- EC50 (APP wild-type cells): 5.9 µM
- GSM activity (γ-secretase): Aβ42-lowering
- Aβ40 or Aβ42 concentrations (APP-NOTCH TMD cells): did not change either Aβ40 or Aβ42 concentrations
- Kd (Aβ(1-42)): 12.1 ± 4.7 µM
- shorter amyloid-β (IP-MS) (H4 APPwt cells): increased amounts of shorter amyloid-β
- Aβ33 levels (IP-MS) (H4 APPwt cells; 25 μM, 16 hours): raise Aβ33 levels more effectively than SS
- levels of Aβ42 (IP-MS) (H4 APPwt cells; 25 μM, 16 hours): consistently decrease levels of Aβ42
